Experimental data taken from patent US7358255B2, “Therapeutic agent for keratoconjunctival disorder” (Santen Pharmaceutical Co., Ltd., priority 2003, dated 2008).

What was measured:
[1] = hydrochloride compared with free form; cited from earlier work
[2] = hydrochloride compared with free form; cited from earlier work; remark: listed apart in the source
[3] = test system: corneal damage in dry eye model (exorbital lacrimal gland removed); assay: Healing effect test for corneal damage (dry eye model, fluorescein staining score); type: in vivo, male SD rats
Protocol: Healing Effect Test for Corneal Damage Using male SD rats, a dry eye model was produced according to the method of Fujihara et al. (Invest. Ophthalmol. Vis. Sci 42 (1): 96-100 (2001)). After producing the dry eye model, cure rate of a corneal damage was determined according to the method of Miyata et al. (Japanese Review of Clinical Ophthalmology, 48 (2): 183-188 (1994)). A male SD rat was systemically anesthetized by an interperitoneal administration of Nembutal in an amount of 35 mg/kg. Subsequently, exorbital lacrimal gland was removed, and corneal damage was induced over two months. Next, a 0.01% solution of the present compound dissolved in a physiological saline solution was instilled into one eye, while the physiological saline solution (control) was instilled into the other eye, respectively, six times per day for 7 days. On day 7 after initiating the instillation, impaired part of the cornea was stained with fluorescein. Score of upper, middle and lower parts of the cornea were assessed according to the following criteria on the extent of staining by fluorescein, respectively. […] Similar test was also conducted on normal eyes as described above to determine the mean value of total scores on each part described above. 0: No punctate staining 1: Scattered staining (punctate, separated staining) 2: Moderate staining (a part of punctate staining being adjacent) 3: Heavy staining (punctate, barely separated staining) Improvement ratio of the 0.01% eye drop administration group of the present compound is shown in Table 1 calculated on the basis of the mean value of total scores of the aforementioned respective parts in the group (control) administered with a physiological saline solution eye drop as a standard value (improvement ratio: 0%), according to the following calculating formula. Mean value of the scores was obtained by averaging 8 examples in each case. [formula]

In the case of `COc1ccc2nc(COc3ccc(CC4SC(=O)NC4=O)cc3)n(C)c2c1` (centres unmarked) [5-[4-(6-methoxy-1-methyl-1H-benzimidazol-2-ylmethoxy)benzyl]thiazolidine-2,4-dione], the “Solubility in comparison with the free form” value [1] is given as “remarkable elevation of solubility” and the Oral absorptivity [2] is given as “excellent oral absorptivity”.

In the case of `COc1ccc2nc(COc3ccc(CC4SC(=O)NC4=O)cc3)n(C)c2c1` (centres unmarked) [Present compound, 5-[4-(6-methoxy-1-methyl-1H-benzimidazol-2-ylmethoxy)benzyl]thiazolidine-2,4-dione], the “Improvement ratio (%)” value ([3]; 0.01% eye drop, six times per day for 7 days, calculated from mean total scores with saline control as 0%) was 53%, the “Mean value of total scores” value ([3]; fluorescein staining scores (0-3) of upper, middle and lower cornea summed, 0.01% solution in physiological saline instilled six times per day for 7 days, day 7, mean of 8, normal eye 2.9, control 6.1) was 4.4 and the “Improvement of the corneal damage (in words)” value ([3]; rat dry eye model, 0.01% eye drop) was “markedly improves the corneal damage”.
